Measured values: US11602518B2, “Lipidic furan, pyrrole, and thiophene compounds for use in the treatment of atrophic vaginitis” (Avoscience, LLC, priority 2016, dated 2023)

System: female subjects diagnosed with vaginal atrophy
Assay: Double blind placebo control study: tissue morphometry by vaginal biopsy after topical Formula I(n) capsules
Assay type: in vivo, human
Excerpt: The histology and morphometry of vaginal atrophy is characterized by a reduction in dermal and epidermal thickness, dermal collagen content (hydroxyproline), the number of cells in the tissue (by DNA content and histology), and dermal and epidermal protein content as well as reduction in overall dermal metabolism as measured by [^14 C]-glucose. These parameters are all increased by the action of topical administration of Formula I(n).
In a double blind placebo control study, a baseline tissue morphometry was determined by biopsy on 20 female subjects diagnosed with vaginal atrophy. Subjects applied a capsule daily containing either Formula I(n) (3%) and avocado oil or simply a capsule of avocado oil alone.

[1] = biopsy after 60 days, daily capsule 3% in avocado oil
[2] = biopsy after 60 days, daily capsule 3% in avocado oil, over control

Q: CCCCC/C=C\C/C=C\CCCCCCCc1ccco1 [Formula I(n), 2-(8Z,11Z-heptadecadienyl)furan] was tested. Which “increase in dermal thickness” value (biopsy after 60 days vs baseline, daily capsule 3% in avocado oil, control vehicle 7%) did it give?
A: Its value is 53%.

Q: What about the “increase in epidermal thickness” value (biopsy after 60 days vs baseline, daily capsule 3% in avocado oil, control vehicle 9%) of the same molecule?
A: Its value is 76%.

Q: And the “Dermal fibroblast population (cross section) increase” value [1]?
A: The value was 231%.

Q: What about the “Dermal fibroblast population (number) increase” value [1] of the same molecule?
A: Its value is 127%.

Q: And the “increase in aerobic glucose utilization or metabolism” value [1]?
A: The value was 413%.

Q: What about the “increase in total thickness (epidermal and dermal combined)” value [1] of the same molecule?
A: The value was 156%.

Q: And the “DNA content increase over control” value [2]?
A: The value was 68%.

Q: What about the “Dermal collagen content increase over control” value [2] of the same molecule?
A: Its value is 74%.

Q: And the “Protein content increase over control” value [2]?
A: Its value is 122%.

Q: And the inflammatory response (biopsy after 60 days, daily topical capsule, Formula I(n) (3%) and avocado oil)?
A: Its inflammatory response is “No observable inflammatory response”.

Q: What about the “dermal and epidermal thickness, dermal collagen content, number of cells, dermal and epidermal protein content, overall dermal metabolism” value (topical administration, summary statement) of the same molecule?
A: Its value is “increased”.
